Assay results as given in patent US10758534B2 (Vertex Pharmaceuticals Incorporated, priority 2014, dated 2020).

Molecular target: T1, F508del (Homo sapiens, UniProt P13569, DEL508-508)
T1 construct: expressed in transfected cells
Experiment: Protocol 1: membrane potential optical assay (FLIPR III, voltage sensing dye), identification of potentiator compounds
Type: cell-based
Settings: Table 3, compounds of Table 1
How it was run: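 Membrane potential in forskolin-activated, temperature-rescued F508del NIH 3T3 cells is followed with a voltage-sensing dye on FLIPR III. A chloride ion gradient created at the single addition step provides the driving force, after prior compound treatment.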

T1 sequence (P13569 with tags, fused parts or gaps DEL508-508): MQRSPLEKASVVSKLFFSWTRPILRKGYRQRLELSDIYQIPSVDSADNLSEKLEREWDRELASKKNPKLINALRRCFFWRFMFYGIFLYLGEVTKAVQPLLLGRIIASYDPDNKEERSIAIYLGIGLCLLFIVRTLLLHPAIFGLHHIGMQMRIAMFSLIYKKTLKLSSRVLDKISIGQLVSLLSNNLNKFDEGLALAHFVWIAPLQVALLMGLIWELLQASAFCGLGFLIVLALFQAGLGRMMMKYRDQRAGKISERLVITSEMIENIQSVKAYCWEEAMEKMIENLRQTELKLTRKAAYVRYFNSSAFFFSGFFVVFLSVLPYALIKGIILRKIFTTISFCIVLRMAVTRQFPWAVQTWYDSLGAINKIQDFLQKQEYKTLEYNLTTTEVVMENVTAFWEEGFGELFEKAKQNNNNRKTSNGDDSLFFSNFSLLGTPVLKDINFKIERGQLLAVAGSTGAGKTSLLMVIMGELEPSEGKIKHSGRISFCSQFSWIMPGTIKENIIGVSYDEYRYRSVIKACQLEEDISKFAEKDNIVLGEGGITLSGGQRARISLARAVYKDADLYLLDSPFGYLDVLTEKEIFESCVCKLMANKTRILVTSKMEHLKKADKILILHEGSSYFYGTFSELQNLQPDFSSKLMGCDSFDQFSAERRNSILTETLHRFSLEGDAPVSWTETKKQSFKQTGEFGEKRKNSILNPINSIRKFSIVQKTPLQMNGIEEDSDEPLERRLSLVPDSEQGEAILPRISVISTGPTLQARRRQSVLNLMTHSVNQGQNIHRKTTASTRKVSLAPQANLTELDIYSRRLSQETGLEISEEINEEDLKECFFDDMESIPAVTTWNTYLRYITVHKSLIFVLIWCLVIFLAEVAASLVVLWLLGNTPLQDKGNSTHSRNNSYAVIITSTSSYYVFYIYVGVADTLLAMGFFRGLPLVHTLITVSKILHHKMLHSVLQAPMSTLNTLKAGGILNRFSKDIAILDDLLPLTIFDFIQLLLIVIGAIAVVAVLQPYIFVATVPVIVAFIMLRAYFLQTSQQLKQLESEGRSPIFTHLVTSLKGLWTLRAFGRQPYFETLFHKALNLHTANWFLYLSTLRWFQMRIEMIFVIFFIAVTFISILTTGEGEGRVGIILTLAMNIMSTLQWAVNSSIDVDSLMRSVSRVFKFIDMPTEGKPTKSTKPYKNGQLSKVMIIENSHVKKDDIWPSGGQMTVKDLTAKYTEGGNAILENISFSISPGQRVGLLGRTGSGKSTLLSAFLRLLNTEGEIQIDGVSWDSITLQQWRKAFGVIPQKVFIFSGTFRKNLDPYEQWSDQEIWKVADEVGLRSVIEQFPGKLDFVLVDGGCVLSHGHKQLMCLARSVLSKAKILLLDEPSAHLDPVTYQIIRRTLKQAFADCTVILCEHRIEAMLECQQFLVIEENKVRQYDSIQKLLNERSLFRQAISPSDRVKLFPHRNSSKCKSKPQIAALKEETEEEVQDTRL

SMILES: Cc1cc(C)c(CN2Cc3ccccc3CCC2C(=O)NS(=O)(=O)c2ccc[nH]c2=O)c(C)c1 (centres unmarked) [Compound 855, N-[(2-oxo-1H-pyridin-3-yl)sulfonyl]-2-[(2,4,6-trimethylphenyl)methyl]-1,3,4,5-tetrahydro-2-benzazepine-3-carboxamide]
- EC30: + (“+” means greater than 10 uM)

SMILES: Cc1cc(C)c(Oc2nc(-c3ccc4[nH]ncc4c3)ccc2C(=O)NS(=O)(=O)c2cccc(N)n2)c(C)c1 [Compound 856, N-[(6-amino-2-pyridyl)sulfonyl]-6-(1H-indazol-5-yl)-2-(2,4,6-trimethylphenoxy)pyridine-3-carboxamide]
- EC30: ++ (“++” means between 3 uM and 10 uM)

SMILES: CC(C)COc1cc(F)cc(-c2ccc(C(=O)NS(=O)(=O)c3cccc(N)n3)c(N3CC4CCCC4C3)n2)c1 (centres unmarked) [Compound 857, 2-(3,3a,4,5,6,6a-hexahydro-1H-cyclopenta[c]pyrrol-2-yl)-N-[(6-amino-2-pyridyl)sulfonyl]-6-(3-fluoro-5-isobutoxy-phenyl)pyridine-3-carboxamide]
- EC30: +++ (“+++” means <3 uM)

SMILES: CC(C)Oc1ccc(-c2ccc(C(=O)NS(=O)(=O)c3cccc(N)n3)c(N3CCCC(OCC4CC4)C3)n2)cn1 (centres unmarked) [Compound 858, N-[(6-amino-2-pyridyl)sulfonyl]-2-[3-(cyclopropylmethoxy)-1-piperidyl]-6-(6-isopropoxy-3-pyridyl)pyridine-3-carboxamide]
- EC30: ++ (“++” means between 3 uM and 10 uM)

SMILES: CC(C)COc1cc(F)cc(-c2ccc(C(=O)NS(=O)(=O)c3cccc(N)n3)c(N3CCCC3c3ccccc3)n2)c1 (centres unmarked) [Compound 859, N-[(6-amino-2-pyridyl)sulfonyl]-6-(3-fluoro-5-isobutoxy-phenyl)-2-(2-phenylpyrrolidin-1-yl)pyridine-3-carboxamide]
- EC30: +++ (“+++” means <3 uM)

SMILES: CCOc1cc(-c2ccc(C(=O)NS(=O)(=O)c3cccc(N)n3)c(Oc3c(C)cc(C)cc3C)n2)ccc1OC [Compound 860, N-[(6-amino-2-pyridyl)sulfonyl]-6-(3-ethoxy-4-methoxy-phenyl)-2-(2,4,6-trimethylphenoxy)pyridine-3-carboxamide]
- EC30: ++ (“++” means between 3 uM and 10 uM)

SMILES: COc1ncc(-c2ccc(C(=O)NS(=O)(=O)c3cccnc3OC)c(-c3ccc(C)cc3)n2)cc1C [Compound 861, 6-(6-methoxy-5-methyl-3-pyridyl)-N-[(2-methoxy-3-pyridyl)sulfonyl]-2-(p-tolyl)pyridine-3-carboxamide]
- EC30: ++ (“++” means between 3 uM and 10 uM)

SMILES: CCCCCc1ccc(C(=O)NS(=O)(=O)c2cccc(N)n2)c(Oc2c(C)cc(C)cc2C)n1 [Compound 862, N-[(6-amino-2-pyridyl)sulfonyl]-6-pentyl-2-(2,4,6-trimethylphenoxy)pyridine-3-carboxamide]
- EC30: +++ (“+++” means <3 uM)

SMILES: COc1ncc(-c2ccc(C(=O)NS(=O)(=O)c3cccc(N)n3)c(N3CCC(C)CC3)n2)cc1C [Compound 863, N-[(6-amino-2-pyridyl)sulfonyl]-6-(6-methoxy-5-methyl-3-pyridyl)-2-(4-methyl-1-piperidyl)pyridine-3-carboxamide]
- EC30: ++ (“++” means between 3 uM and 10 uM)

SMILES: CC(C)Oc1ccc(-c2ccc(C(=O)NS(=O)(=O)c3cccc(N)n3)c(N3CCC[C@@H](c4ccccc4)C3)n2)cn1 [Compound 864, N-[(6-amino-2-pyridyl)sulfonyl]-6-(6-isopropoxy-3-pyridyl)-2-[(3S)-3-phenyl-1-piperidyl]pyridine-3-carboxamide]
- EC30: +++ (“+++” means <3 uM)

SMILES: Cc1cc(C)c(Oc2ncc(-c3ccccc3C(C)C)cc2C(=O)NS(=O)(=O)c2cccc(N)n2)c(C)c1 [Compound 865, N-[(6-amino-2-pyridyl)sulfonyl]-5-(2-isopropylphenyl)-2-(2,4,6-trimethylphenoxy)pyridine-3-carboxamide]
- EC30: +++ (“+++” means <3 uM)

SMILES: Cc1cc(C)c(Oc2nc(-c3cccc(F)c3O)ccc2C(=O)NS(=O)(=O)c2cccc(N)n2)c(C)c1 [Compound 866, N-[(6-amino-2-pyridyl)sulfonyl]-6-(3-fluoro-2-hydroxy-phenyl)-2-(2,4,6-trimethylphenoxy)pyridine-3-carboxamide]
- EC30: +++ (“+++” means <3 uM)

SMILES: CC(C)COc1cc(F)cc(-c2ccc(C(=O)NS(=O)(=O)c3cccc(N)n3)c(OC(C)c3ccc(F)cc3)n2)c1 (centres unmarked) [Compound 867, N-[(6-amino-2-pyridyl)sulfonyl]-6-(3-fluoro-5-isobutoxy-phenyl)-2-[1-(4-fluorophenyl)ethoxy]pyridine-3-carboxamide]
- EC30: +++ (“+++” means <3 uM)

SMILES: Cc1cc(C)c(Oc2ncc(-c3ccccc3C(C)(C)C)cc2C(=O)NS(=O)(=O)c2cccc(N)n2)c(C)c1 [Compound 868, N-[(6-amino-2-pyridyl)sulfonyl]-5-(2-tert-butylphenyl)-2-(2,4,6-trimethylphenoxy)pyridine-3-carboxamide]
- EC30: +++ (“+++” means <3 uM)

SMILES: Cc1cc(C)c(Oc2nc(-c3ccccc3)ccc2C(=O)NS(=O)(=O)c2cccc(N(C)C)n2)c(C)c1 [Compound 869, N-[[6-(dimethylamino)-2-pyridyl]sulfonyl]-6-phenyl-2-(2,4,6-trimethylphenoxy)pyridine-3-carboxamide]
- EC30: +++ (“+++” means <3 uM)

SMILES: Cc1cc(C)c(CN2C[C@H](c3ccccc3)C[C@H]2C(=O)NS(=O)(=O)c2cccc(N)n2)c(C)c1 [Compound 870, (2S,4S)—N-[(6-amino-2-pyridyl)sulfonyl]-4-phenyl-1-[(2,4,6-trimethylphenyl)methyl]pyrrolidine-2-carboxamide]
- EC30: ++ (“++” means between 3 uM and 10 uM)

SMILES: Cc1cc(C)c(Oc2nc(-c3cc(F)cc(OCC(C)C)c3)ccc2C(=O)NS(=O)(=O)c2cccc(CN)n2)c(C)c1 [Compound 871, N-[[6-(aminomethyl)-2-pyridyl]sulfonyl]-6-(3-fluoro-5-isobutoxy-phenyl)-2-(2,4,6-trimethylphenoxy)pyridine-3-carboxamide]
- EC30: +++ (“+++” means <3 uM)

SMILES: CC(C)COc1cc(F)cc(-c2ccc(C(=O)NS(=O)(=O)c3cccc(N)n3)c(OC3COC3)n2)c1 [Compound 872, N-[(6-amino-2-pyridyl)sulfonyl]-6-(3-fluoro-5-isobutoxy-phenyl)-2-(oxetan-3-yloxy)pyridine-3-carboxamide]
- EC30: ++ (“++” means between 3 uM and 10 uM)

SMILES: Cc1cc(C)c(CN2Cc3ccccc3C2(C)C(=O)NS(=O)(=O)c2ccccc2)c(C)c1 (centres unmarked) [Compound 873, N-(benzenesulfonyl)-1-methyl-2-[(2,4,6-trimethylphenyl)methyl]isoindoline-1-carboxamide]
- EC30: +++ (“+++” means <3 uM)

SMILES: CC(C)COc1cc(F)cc(-c2ccc(C(=O)NS(=O)(=O)c3cccc(N)n3)c(OC(C)c3ccccc3)n2)c1 (centres unmarked) [Compound 874, N-[(6-amino-2-pyridyl)sulfonyl]-6-(3-fluoro-5-isobutoxy-phenyl)-2-(1-phenylethoxy)pyridine-3-carboxamide]
- EC30: +++ (“+++” means <3 uM)

SMILES: Cc1cc(C)c(Oc2nc(-c3ccc(C)cc3F)ccc2C(=O)NS(=O)(=O)c2cccc(N)n2)c(C)c1 [Compound 875, N-[(6-amino-2-pyridyl)sulfonyl]-6-(2-fluoro-4-methyl-phenyl)-2-(2,4,6-trimethylphenoxy)pyridine-3-carboxamide]
- EC30: +++ (“+++” means <3 uM)

SMILES: COc1ncccc1S(=O)(=O)NC(=O)C1Cc2ccccc2CCN1Cc1c(C)cc(C)cc1C (centres unmarked) [Compound 876, N-[(2-methoxy-3-pyridyl)sulfonyl]-3-[(2,4,6-trimethylphenyl)methyl]-1,2,4,5-tetrahydro-3-benzazepine-4-carboxamide]
- EC30: +++ (“+++” means <3 uM)

SMILES: Cc1cc(C)c(Oc2nc(-c3ccccc3Cl)ccc2C(=O)NS(=O)(=O)c2ccc[nH]c2=O)c(C)c1 [Compound 877, 6-(2-chlorophenyl)-N-[(2-oxo-1H-pyridin-3-yl)sulfonyl]-2-(2,4,6-trimethylphenoxy)pyridine-3-carboxamide]
- EC30: +++ (“+++” means <3 uM)

SMILES: CC(C)COc1cc(F)cc(-c2ccc(C(=O)NS(=O)(=O)c3ccn[nH]3)c(N3CCCC(F)C3)n2)c1 (centres unmarked) [Compound 878, 6-(3-fluoro-5-isobutoxy-phenyl)-2-(3-fluoro-1-piperidyl)-N-(1H-pyrazol-5-ylsulfonyl)pyridine-3-carboxamide]
- EC30: ++ (“++” means between 3 uM and 10 uM)

SMILES: Cc1ccc(-c2ccc(C(=O)NS(=O)(=O)c3cc[nH]n3)c(NCC3(C)CCOCC3)n2)cc1 [Compound 879, 2-[(4-methyltetrahydropyran-4-yl)methylamino]-6-(p-tolyl)-N-(1H-pyrazol-3-ylsulfonyl)pyridine-3-carboxamide]
- EC30: + (“+” means greater than 10 uM)

SMILES: CC(C)(C)c1ccc(C(=O)NS(=O)(=O)c2ccc(N)cc2)c(C2=CCCCC2)n1 [Compound 880, N-(4-aminophenyl)sulfonyl-6-tert-butyl-2-(cyclohexen-1-yl)pyridine-3-carboxamide]
- EC30: ++ (“++” means between 3 uM and 10 uM)

SMILES: CCCN(CC1CC1)c1nc(-c2cc(F)cc(OCC(C)C)c2)ccc1C(=O)NS(=O)(=O)c1cccc(N)n1 [Compound 881, N-[(6-amino-2-pyridyl)sulfonyl]-2-[cyclopropylmethyl(propyl)amino]-6-(3-fluoro-5-isobutoxy-phenyl)pyridine-3-carboxamide]
- EC30: +++ (“+++” means <3 uM)

SMILES: Cc1cc(C)c(Oc2nc(C3=CCCCC3)ccc2C(=O)NS(=O)(=O)c2ccc[nH]c2=O)c(C)c1 [Compound 882, 6-(cyclohexen-1-yl)-N-[(2-oxo-1H-pyridin-3-yl)sulfonyl]-2-(2,4,6-trimethylphenoxy)pyridine-3-carboxamide]
- EC30: +++ (“+++” means <3 uM)

SMILES: Cc1cc(C)c(Oc2nc(C)ccc2C(=O)NS(=O)(=O)c2cccc(N3CCOCC3)n2)c(C)c1 [Compound 883, 6-methyl-N-[(6-morpholino-2-pyridyl)sulfonyl]-2-(2,4,6-trimethylphenoxy)pyridine-3-carboxamide]
- EC30: ++ (“++” means between 3 uM and 10 uM)
